Calls of active or inactive are those of the source. The rule behind the calls is not given here.
Tests used:
[1] = target: T1, von Hippel-Lindau disease tumor suppressor/Son of sevenless homolog 1 (Homo sapiens) (UniProt Q07889+P40337); assay: PROTAC activity at VHL/SOS1 in human NCI-H358 cells assessed as induction of SOS1 protein degradation at 0.1 uM incubated for 24 hrs by Immunoblot analysis relative to control; format: cell-based
[2] = target: T1, von Hippel-Lindau disease tumor suppressor/Son of sevenless homolog 1 (Homo sapiens); assay: PROTAC activity at VHL/SOS1 in human NCI-H358 cells assessed as induction of SOS1 protein degradation at 1.0 uM incubated for 24 hrs by Immunoblot analysis relative to control; format: cell-based
[3] = target: T2, Son of sevenless homolog 1 (Homo sapiens, UniProt Q07889); assay: Binding affinity to GST-tagged human SOS1 (564 to 1049 residues) expressed in Escherichia coli BL21 (DE3) cells assessed as binary complex formation by measuring dissociation constant incubated for 15 mins by fluorescence polarization-based displacement assay
T2 sequence (Q07889 whole entry): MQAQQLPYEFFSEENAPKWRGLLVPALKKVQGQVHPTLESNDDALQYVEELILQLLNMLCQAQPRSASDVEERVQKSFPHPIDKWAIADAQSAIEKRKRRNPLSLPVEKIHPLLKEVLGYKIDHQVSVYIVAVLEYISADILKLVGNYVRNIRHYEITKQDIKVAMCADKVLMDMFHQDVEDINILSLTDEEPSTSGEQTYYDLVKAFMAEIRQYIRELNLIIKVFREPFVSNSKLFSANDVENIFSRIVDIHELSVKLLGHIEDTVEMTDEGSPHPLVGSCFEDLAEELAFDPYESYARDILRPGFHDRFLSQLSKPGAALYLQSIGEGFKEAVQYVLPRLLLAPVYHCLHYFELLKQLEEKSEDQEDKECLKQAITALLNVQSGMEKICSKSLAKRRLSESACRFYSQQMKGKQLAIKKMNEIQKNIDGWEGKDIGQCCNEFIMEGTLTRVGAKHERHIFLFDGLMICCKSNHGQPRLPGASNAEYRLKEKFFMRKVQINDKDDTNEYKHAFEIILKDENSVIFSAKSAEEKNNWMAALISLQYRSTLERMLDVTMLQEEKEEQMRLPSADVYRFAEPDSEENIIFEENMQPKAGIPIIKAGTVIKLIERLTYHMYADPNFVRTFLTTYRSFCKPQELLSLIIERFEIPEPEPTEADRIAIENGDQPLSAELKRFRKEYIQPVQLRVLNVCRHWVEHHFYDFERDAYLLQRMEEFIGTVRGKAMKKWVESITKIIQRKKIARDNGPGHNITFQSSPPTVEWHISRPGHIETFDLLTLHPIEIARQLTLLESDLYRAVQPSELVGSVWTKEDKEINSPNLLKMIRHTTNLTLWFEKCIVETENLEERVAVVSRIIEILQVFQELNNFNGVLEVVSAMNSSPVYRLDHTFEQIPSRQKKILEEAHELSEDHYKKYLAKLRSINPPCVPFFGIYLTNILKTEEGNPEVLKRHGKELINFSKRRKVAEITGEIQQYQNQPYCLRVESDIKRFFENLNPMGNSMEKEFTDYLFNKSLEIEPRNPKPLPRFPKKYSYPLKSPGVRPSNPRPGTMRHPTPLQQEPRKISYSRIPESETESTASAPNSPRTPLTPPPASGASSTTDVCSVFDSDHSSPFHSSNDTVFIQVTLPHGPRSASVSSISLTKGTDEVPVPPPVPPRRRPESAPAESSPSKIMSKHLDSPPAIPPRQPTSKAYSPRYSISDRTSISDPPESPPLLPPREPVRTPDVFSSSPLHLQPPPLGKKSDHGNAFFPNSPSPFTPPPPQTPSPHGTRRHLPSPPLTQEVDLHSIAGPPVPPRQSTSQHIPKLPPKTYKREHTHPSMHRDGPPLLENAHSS

[4] = target: T1, von Hippel-Lindau disease tumor suppressor/Son of sevenless homolog 1 (Homo sapiens); assay: PROTAC activity at VHL/SOS1 in human ASPC1 cells harboring KRAS G12D mutant assessed as induction of SOS1 degradation at 1 uM preincubated with (R)-1-(4-(4-((1-(3-amino-5-(trifluoromethyl)phenyl)ethyl)amino)-7-methoxy-2-methylquinazolin-6-yl)piperidin-1-yl)ethanone for 4 hrs followed by compound treatment and measured after 24 hrs by immunoblot analysis; format: cell-based
[5] = target: von Hippel-Lindau disease tumor suppressor/Son of sevenless homolog 1 (Homo sapiens, UniProt P40337+Q07889, G12R); assay: PROTAC activity at VHL/SOS1 in human CAL-62 cells harboring KRAS G12R mutant assessed as induction of SOS1 degradation incubated for 24 hrs by Immunoblot analysis; format: cell-based
Sequence of von Hippel-Lindau disease tumor suppressor/Son of sevenless homolog 1 (P40337 whole entry, looked up, stated change not applied, one chain of several): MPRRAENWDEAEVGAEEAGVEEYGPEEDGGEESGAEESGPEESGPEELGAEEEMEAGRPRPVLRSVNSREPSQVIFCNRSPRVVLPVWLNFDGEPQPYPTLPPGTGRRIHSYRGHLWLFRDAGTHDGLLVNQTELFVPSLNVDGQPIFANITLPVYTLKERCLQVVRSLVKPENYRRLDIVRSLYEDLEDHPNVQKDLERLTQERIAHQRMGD

[6] = target: T1, von Hippel-Lindau disease tumor suppressor/Son of sevenless homolog 1 (Homo sapiens); assay: PROTAC activity at VHL/SOS1 in human PANC-1 cells harboring KRAS G12D mutant assessed as induction of SOS1 degradation by measuring maximal efficacy at 1 to 2000 nM incubated for 24 hrs by Immunoblot analysis relative to control; format: cell-based; conditions: dose 1-2000 nM
[7] = target: T1, von Hippel-Lindau disease tumor suppressor/Son of sevenless homolog 1 (Homo sapiens); assay: PROTAC activity at VHL/SOS1 in human SK-LU-1 cells harboring KRAS G12D mutant assessed as induction of SOS1 degradation by measuring maximal efficacy at 1 to 2000 nM incubated for 24 hrs by Immunoblot analysis relative to control; format: cell-based; conditions: dose 1-2000 nM
[8] = target: T1, von Hippel-Lindau disease tumor suppressor/Son of sevenless homolog 1 (Homo sapiens); assay: PROTAC activity at VHL/SOS1 in human SK-CO-1 cells harboring G12V mutant assessed as induction of SOS1 degradation by measuring maximal efficacy at 1 to 2000 nM incubated for 24 hrs by Immunoblot analysis relative to control; format: cell-based; conditions: dose 1-2000 nM
[9] = target: T1, von Hippel-Lindau disease tumor suppressor/Son of sevenless homolog 1 (Homo sapiens); assay: PROTAC activity at VHL/SOS1 in human CAL-62 cells harboring KRAS G12R mutant assessed as induction of SOS1 degradation by measuring maximal efficacy at 1 to 2000 nM incubated for 24 hrs by Immunoblot analysis relative to control; format: cell-based; conditions: dose 1-2000 nM
[10] = tested on: PANC-1; assay: Antiproliferative activity against human PANC-1 cells harboring KRAS G12D mutant assessed as inhibition of cell proliferation incubated for 7 days by CellTiterGlo-3D proliferation assay; format: functional, cell-based; conditions: PANC-1, 168 h
[11] = tested on: SW-620; assay: Antiproliferative activity against human SW620 cells harboring KRAS G12V mutant assessed as inhibition of cell proliferation incubated for 7 days by CellTiterGlo-3D proliferation assay; format: functional, cell-based; conditions: SW-620, 168 h
[12] = tested on: ASPC1; assay: Downregulation of ZCCHC10 in human ASPC1 cells at 1 uM incubated for 6 hrs by quantitative proteomics analysis; format: functional, cell-based
[13] = tested on: ASPC1; assay: Downregulation of ALKBH4 in human ASPC1 cells at 1 uM incubated for 6 hrs by quantitative proteomics analysis; format: functional, cell-based
[14] = Half-life in BALB/c mouse at 10 mg/kg, ip measured upto 24 hrs by LC-MS/MS analysis; format: ADME, organism-based; conditions: in vivo
[15] = tested on: ASPC1; assay: Antitumor activity against human ASPC1 cells harboring KRAS G12D mutant xenografted in BALB/c nude mouse assessed as tumor growth inhibition at 20 mg/kg, ip administered once daily for 3 weeks relative to control; format: functional; conditions: ASPC1, 504 h, read-out: TGI
[16] = target: T1, von Hippel-Lindau disease tumor suppressor/Son of sevenless homolog 1 (Homo sapiens); assay: In vivo PROTAC activity at VHL/SOS1 in human ASPC1 cells harboring KRAS G12D mutant xenografted BALB/c nude mouse assessed as decrease in phosphorylated ERK expression at 10 to 20 mg/kg, ip administered once daily for 3 weeks by Immunoblot analysis; format: functional, organism-based; conditions: dose 10-20 mg/kg

T1 sequence (P40337 whole entry, looked up, one chain of several): as the sequence (P40337 whole entry, looked up, stated change not applied, one chain of several) above

COc1cc2nc(C)nc(N[C@H](C)c3cc(N)cc(C(F)(F)F)c3)c2cc1C1CCN(C(=O)CCCCCC(=O)N[C@H](C(=O)N2C[C@H](O)C[C@H]2C(=O)N[C@@H](C)c2ccc(-c3scnc3C)cc2)C(C)(C)C)CC1
Activity [1]: 83.9%
Activity [2]: 98.2%
Kd [3]: 93 nM
Activity [4]: inactive
EC50 [5]: 15 nM
Emax [6]: > 95%
Emax [7]: > 95%
Emax [8]: > 95%
Emax [9]: > 95%
IC50 [10]: 13.8 nM
IC50 [11]: 18.5 nM
Activity [12]: Active
Activity [13]: Active
half-life [14]: 581 min
inhibition in vivo at 20 mg/kg [15]: 70.2%
Activity [16]: Active

Reference: ChEMBL document CHEMBL5247656, “Discovery of a Potent, Cooperative, and Selective SOS1 PROTAC ZZ151 with In Vivo Antitumor Efficacy in KRAS-Mutant Cancers” (J Med Chem, 2023)
